The source made the active and inactive calls.
Legend:
HEK293 [1] = assay: cells; settings: Homo sapiens
HEK293 [2] = assay: cells; settings: Homo sapiens; remark: listed apart in the source
[3] = Vero E6 cell cytotoxicity, dose response, cytotoxicity control for non-replicating M. tuberculosis project, secondary assay (AID 492998); type: functional, VeroE6; settings: Vero C1008
[4] = microbe, parasite or virus in culture; type: functional; settings: Mycobacterium tuberculosis
[5] = THP-1 cell cytotoxicity, dose response, cytotoxicity control for non-replicating M. tuberculosis project (AID 489025); type: functional
A-375 [6] = assay: proliferation inhibition in MITF-low A375 cells – cell-based, cherry-pick samples, set 2, counter-screen for MITF modulator project, dose response (AID 540335); type: functional; settings: Homo sapiens
A-375 [7] = assay: MITF: Counter assay: A375 proliferation Measured in Cell-Based System Using Plate Reader - 2084-03_Inhibitor_Dose_DryPowder_Activity. [Related pubchem assays (depositor defined):AID488944]; type: functional; settings: Homo sapiens
[8] = molecular target: Intestinal-type alkaline phosphatase (Homo sapiens, UniProt P09923); assay: inhibition of human intestinal alkaline phosphatase – biochemical, dose response (AID 488876); type: functional
Intestinal-type alkaline phosphatase (Homo sapiens, UniProt P09923), sequence (P09923 whole entry): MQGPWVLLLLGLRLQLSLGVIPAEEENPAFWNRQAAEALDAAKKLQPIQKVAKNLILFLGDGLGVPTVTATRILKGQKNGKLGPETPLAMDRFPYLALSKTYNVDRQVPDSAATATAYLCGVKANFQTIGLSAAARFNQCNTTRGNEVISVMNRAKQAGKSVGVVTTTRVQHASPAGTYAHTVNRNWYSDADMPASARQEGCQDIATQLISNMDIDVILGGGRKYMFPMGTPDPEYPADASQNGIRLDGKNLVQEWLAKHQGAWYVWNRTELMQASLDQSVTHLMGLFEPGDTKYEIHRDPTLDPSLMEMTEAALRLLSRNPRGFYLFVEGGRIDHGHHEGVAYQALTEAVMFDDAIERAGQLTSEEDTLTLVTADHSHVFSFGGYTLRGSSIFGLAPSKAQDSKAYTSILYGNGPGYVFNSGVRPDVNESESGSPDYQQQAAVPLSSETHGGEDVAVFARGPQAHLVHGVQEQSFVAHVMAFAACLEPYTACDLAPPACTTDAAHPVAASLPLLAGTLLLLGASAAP

[9] = molecular target: Intestinal-type alkaline phosphatase (Mus musculus, UniProt P24822); assay: PubChem AID 488785; type: functional
Intestinal-type alkaline phosphatase (Mus musculus, UniProt P24822), sequence (P24822 whole entry): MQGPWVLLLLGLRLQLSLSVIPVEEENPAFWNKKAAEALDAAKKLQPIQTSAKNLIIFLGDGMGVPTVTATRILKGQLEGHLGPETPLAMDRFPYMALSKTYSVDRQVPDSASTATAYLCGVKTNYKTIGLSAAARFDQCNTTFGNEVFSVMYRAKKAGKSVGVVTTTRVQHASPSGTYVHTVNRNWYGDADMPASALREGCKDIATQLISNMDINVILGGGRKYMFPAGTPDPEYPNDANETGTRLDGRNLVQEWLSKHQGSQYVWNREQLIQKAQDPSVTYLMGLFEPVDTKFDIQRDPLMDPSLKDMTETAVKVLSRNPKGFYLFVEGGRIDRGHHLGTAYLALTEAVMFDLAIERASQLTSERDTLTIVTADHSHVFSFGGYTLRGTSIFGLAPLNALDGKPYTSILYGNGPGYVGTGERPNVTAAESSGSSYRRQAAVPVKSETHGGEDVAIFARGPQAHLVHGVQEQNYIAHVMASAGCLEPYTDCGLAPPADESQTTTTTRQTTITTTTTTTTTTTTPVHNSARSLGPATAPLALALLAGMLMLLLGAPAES

cells = type: functional
[10] = molecular target: T1, Alkaline phosphatase, tissue-nonspecific isozyme (Homo sapiens, UniProt P05186); assay: TNAP enzyme inhibition by screening hits, dose response, selectivity assay for mouse IAP inhibitor project, biochemical, human TNAP, uHTS hits (AID 488906); type: functional
T1 sequence (P05186 whole entry): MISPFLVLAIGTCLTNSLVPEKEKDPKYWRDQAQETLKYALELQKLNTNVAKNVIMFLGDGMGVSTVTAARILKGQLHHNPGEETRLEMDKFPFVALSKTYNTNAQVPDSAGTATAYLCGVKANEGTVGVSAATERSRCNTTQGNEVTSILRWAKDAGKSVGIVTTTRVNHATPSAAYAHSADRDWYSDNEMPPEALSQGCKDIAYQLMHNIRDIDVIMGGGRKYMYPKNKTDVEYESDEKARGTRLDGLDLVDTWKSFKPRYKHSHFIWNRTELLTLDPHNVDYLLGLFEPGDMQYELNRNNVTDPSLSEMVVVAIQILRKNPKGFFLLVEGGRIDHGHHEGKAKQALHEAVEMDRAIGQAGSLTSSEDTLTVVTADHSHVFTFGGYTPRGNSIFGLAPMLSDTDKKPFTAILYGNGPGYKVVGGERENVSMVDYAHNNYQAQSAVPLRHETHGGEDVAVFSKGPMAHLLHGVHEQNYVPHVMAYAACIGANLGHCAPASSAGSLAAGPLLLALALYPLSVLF

[11] = molecular target: Heat shock protein HSP 90-alpha (Homo sapiens, UniProt P07900); type: functional, organism-based
[12] = molecular target: T2, Microphthalmia-associated transcription factor (Homo sapiens, UniProt O75030); assay: reducers of TRPM1 reporter luminescence, concentration series – cell-based, SK-MEL-5, cherry-picked, set 3, MITF inhibitor project, dose response (AID 493073); type: functional;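 also: SK-MEL-5 melanoma cells with luciferase driven by the MITF target TRPM1 promoter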
T2 sequence (O75030 whole entry): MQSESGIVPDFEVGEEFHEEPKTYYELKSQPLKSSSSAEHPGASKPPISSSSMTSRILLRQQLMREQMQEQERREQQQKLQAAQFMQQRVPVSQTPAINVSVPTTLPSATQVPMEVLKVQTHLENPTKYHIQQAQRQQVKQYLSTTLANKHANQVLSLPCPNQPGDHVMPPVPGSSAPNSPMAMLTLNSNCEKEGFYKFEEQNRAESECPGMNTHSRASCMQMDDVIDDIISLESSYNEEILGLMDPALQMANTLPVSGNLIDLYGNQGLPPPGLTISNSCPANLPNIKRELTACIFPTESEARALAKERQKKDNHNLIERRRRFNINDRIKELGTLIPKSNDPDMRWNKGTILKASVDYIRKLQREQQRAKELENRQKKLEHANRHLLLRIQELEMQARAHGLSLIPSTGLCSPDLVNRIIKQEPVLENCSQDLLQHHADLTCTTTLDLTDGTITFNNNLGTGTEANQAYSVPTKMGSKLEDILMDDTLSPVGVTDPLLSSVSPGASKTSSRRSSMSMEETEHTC

Jurkat = assay: blockers of NF-kB activation in T cells – Jurkat, luciferase reporter, luminescence, B- and T-cell, dose response (AID 489004); type: functional, cell-based; settings: Homo sapiens;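 also: NF-kB luciferase reporter Jurkat cells stimulated with PMA plus ionomycin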
[13] = blockade of melanocortin 4 receptor signaling – cell-based, plate reader, cherry pick, counter-screen for LGR2 antagonist project, dose response (AID 743444); type: functional;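 also: transfected HEK 293 cells stimulated with alpha-MSH peptide; potency of inhibitors of the alpha-MSH evoked signal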
[14] = off-target signal loss in HeLa-CEM21 co-culture – HeLa F-luc CTL cells, cherry-picked, counter-screen for HIV-1 Env fusion inhibitor project, dose response (AID 652040); type: functional, cell-based;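 also: potency for signal decrease marking cytotoxic or nonspecific inhibition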
[15] = blockers of bursicon-stimulated LGR2 cAMP reporter – cell-based, HEK293, CRE-luciferase reporter, cherry pick, set 2, dose response (AID 743343); type: functional;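 also: transfected cells were stimulated with diluted bursicon conditioned medium after compound addition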
[16] = HEK-293T viability loss, compound-treated – cell-based, uHTS hits, cytotoxicity control for B/T-cell NF-kB inhibitor project, dose response (AID 489019); type: functional;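 also: IC50 reflects cytotoxicity as loss of cell viability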
[17] = toxicity toward HepG2 liver cells – cell-based, plate reader, cherry-pick, antagonist series, cytotoxicity control, dose response (AID 743416); type: functional
[18] = HIV-1 AD8 envelope cell-cell fusion blockers – cherry-pick, dose response (AID 652062); type: functional, cell-based;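 also: luciferase signal from cell-cell fusion driven by HIV-1 clade B AD8 Env; potency is for inhibitors of fusion seen as a drop in luminescence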
Paired box protein Pax-8 = Paired box protein Pax-8 (Homo sapiens, UniProt Q06710); assay: PAX8 transcriptional activity inhibition in RMG-I – RMG-I cells, luciferase, cherry-pick, dose response (AID 687027); type: functional, cell-based;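 also: luciferase reporter driven by Pax8 target thyroperoxidase promoter measured by SteadyGlo luminescence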
Paired box protein Pax-8, sequence (Q06710 whole entry, the tested form may be a part): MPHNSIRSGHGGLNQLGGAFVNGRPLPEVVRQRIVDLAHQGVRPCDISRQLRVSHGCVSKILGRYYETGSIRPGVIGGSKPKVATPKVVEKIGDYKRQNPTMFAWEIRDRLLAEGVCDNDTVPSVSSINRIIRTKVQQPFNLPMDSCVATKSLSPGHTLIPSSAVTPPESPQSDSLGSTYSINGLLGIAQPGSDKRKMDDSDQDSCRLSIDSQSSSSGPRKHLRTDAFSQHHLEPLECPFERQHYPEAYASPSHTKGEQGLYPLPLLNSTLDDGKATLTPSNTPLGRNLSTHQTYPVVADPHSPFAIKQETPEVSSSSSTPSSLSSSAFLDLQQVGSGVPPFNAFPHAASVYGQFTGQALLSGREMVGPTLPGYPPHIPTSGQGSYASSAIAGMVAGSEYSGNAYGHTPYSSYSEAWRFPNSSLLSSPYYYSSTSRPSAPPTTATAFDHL

[19] = blockers of HIV-1 envelope-mediated cell-cell fusion – cherry-pick, dose response (AID 652057); type: functional, cell-based
[20] = blockers of HIV-1 ZM109 envelope-driven cell-cell fusion – HeLa effector, CEM target cells, luciferase, cherry-pick, dose response (AID 652058); type: functional, cell-based;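 also: luciferase signal from HIV-1 Env mediated cell-cell fusion of effector and target cells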
[21] = A549 cell cytotoxicity, dose response, cytotoxicity control, plate reader, cherry-pick, antagonist series (AID 743412); type: functional, cell-based
[22] = loss of viability in HepG2 cells – cell-based, CellTiter-Glo, cherry-picked, cytotoxicity control for Shn3 inhibitor project, dose response (AID 624134); type: functional
[23] = Trypanosoma cruzi growth suppression in host cells – NIH3T3 host cells, beta-gal luminescence, confirmation (AID 2044); type: functional, cell-based;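 also: intracellular parasites grown in NIH/3T3 mouse fibroblasts as host cells; luminescent beta-galactosidase reporter signal from transgenic T. cruzi replicating inside host cells; inhibitors lower the luminescence signal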
[24] = MIN6 cell viability loss – mouse insulinoma, cytotoxicity control, dose response (AID 2122); type: functional;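 also: confirmatory high-throughput counterscreen run to flag cytotoxic compounds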
[25] = reduction of Shn3 3'UTR-driven luciferase in osteoblasts – cell-based, Clone20 osteoblasts, firefly luciferase, cherry-picked, dose response (AID 624132); type: functional;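 also: firefly luciferase luminescence from reporter carrying the Shn3 3'UTR in osteoblasts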
[26] = viability of HCT116 lacking mutant beta-catenin – cell-based, human colon tumor, dose response (AID 1045); type: functional;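 also: HCT116 colon tumor cells with beta catenin knocked out; cells exposed to compound for 60 hours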
[27] = non-specific 3'UTR reporter inhibition in Clone20-Shn3RL – cell-based, Renilla luciferase, cherry-picked, counter-screen for Shn3 inhibitor project, dose response (AID 624133); type: functional
[28] = decrease of insulin promoter-GFP reporter – imaging, high-content screening, mouse beta cells (AID 1628); type: functional; settings: MIN6
[29] = viability of PTEN-deleted HCT116 cells – cell-based, HCT116 PTEN knockout, dose response (AID 1047); type: functional;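 also: HCT116 colon tumor cells with PTEN knocked out; cells exposed to compound for 60 hours before readout; potency for loss of cell viability measured by luminescence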
[30] = NIH3T3 cell viability loss – ATP luminescence, mouse fibroblasts, counter-screen, dose response (AID 2010); type: functional, cell-based;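 also: cells exposed to compound for about 90 hours before reading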
[31] = viability loss in CEM21 cells – cell-based, CellTiter-Glo luminescence, cherry-picked, cytotoxicity control for viral fusion inhibitor project, dose response (AID 652042); type: functional;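 also: potency for signal decrease meaning cytotoxicity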
[32] = NIH-3T3 fibroblast cytotoxicity, dose response, cytotoxicity control, cell-based, fluorescence, Alamar Blue, secondary assay (AID 2327); type: functional;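 also: NIH-3T3 mouse fibroblasts cultured with fluconazole at 8 µg/mL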
[33] = molecular target: T3, Serine/threonine-protein phosphatase (Candida dubliniensis (strain CD36 / CBS 7987 / NCPF 3949 / NRRLY-17841) (Yeast), UniProt B9W6M3); assay: blockers of CaCl2-induced CDRE-lacZ signaling – S. cerevisiae, luminescence, secondary, dose response (AID 2388); type: functional, cell-based;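 also: yeast reporter cells carrying a calcineurin-responsive lacZ construct stimulated with calcium chloride; luminescent beta-galactosidase reporter signal in whole cells rather than isolated phosphatase activity; potency for inhibition where a drop in reporter signal means calcineurin blockade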
T3 sequence (B9W6M3 whole entry): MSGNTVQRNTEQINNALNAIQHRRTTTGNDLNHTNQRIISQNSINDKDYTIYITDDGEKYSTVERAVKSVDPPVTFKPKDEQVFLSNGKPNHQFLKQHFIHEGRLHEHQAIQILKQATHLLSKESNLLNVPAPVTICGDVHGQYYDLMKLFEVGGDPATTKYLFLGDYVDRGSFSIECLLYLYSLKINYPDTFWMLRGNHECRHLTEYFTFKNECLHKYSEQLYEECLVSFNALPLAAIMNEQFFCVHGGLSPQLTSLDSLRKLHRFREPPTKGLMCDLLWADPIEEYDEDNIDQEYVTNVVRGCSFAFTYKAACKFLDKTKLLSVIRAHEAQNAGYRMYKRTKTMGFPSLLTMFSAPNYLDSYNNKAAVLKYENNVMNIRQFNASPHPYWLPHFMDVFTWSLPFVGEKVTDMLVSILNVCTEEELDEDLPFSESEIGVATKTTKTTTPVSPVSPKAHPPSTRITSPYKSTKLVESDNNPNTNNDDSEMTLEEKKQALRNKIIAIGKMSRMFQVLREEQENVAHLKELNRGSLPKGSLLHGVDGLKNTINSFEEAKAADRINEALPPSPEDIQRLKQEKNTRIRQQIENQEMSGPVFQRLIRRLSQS

[34] = fluconazole-exposed Candida albicans growth modulators – fluorescence, retest, confirmation (AID 2467); type: functional, cell-based
[35] = molecular target: ATP-dependent molecular chaperone HSP82 (Candida albicans (strain WO-1) (Yeast), UniProt C4YTQ8); assay: steroid-induced GRE reporter decrease in yeast – S. cerevisiae, luminescence, Hsp90 inhibitor project, dose response (AID 2400); type: functional, cell-based;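 also: beta-galactosidase luminescence from glucocorticoid response element reporter as proxy for Hsp90 function; inhibitor potency where signal loss means Hsp90 inhibition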
ATP-dependent molecular chaperone HSP82, sequence (C4YTQ8 whole entry): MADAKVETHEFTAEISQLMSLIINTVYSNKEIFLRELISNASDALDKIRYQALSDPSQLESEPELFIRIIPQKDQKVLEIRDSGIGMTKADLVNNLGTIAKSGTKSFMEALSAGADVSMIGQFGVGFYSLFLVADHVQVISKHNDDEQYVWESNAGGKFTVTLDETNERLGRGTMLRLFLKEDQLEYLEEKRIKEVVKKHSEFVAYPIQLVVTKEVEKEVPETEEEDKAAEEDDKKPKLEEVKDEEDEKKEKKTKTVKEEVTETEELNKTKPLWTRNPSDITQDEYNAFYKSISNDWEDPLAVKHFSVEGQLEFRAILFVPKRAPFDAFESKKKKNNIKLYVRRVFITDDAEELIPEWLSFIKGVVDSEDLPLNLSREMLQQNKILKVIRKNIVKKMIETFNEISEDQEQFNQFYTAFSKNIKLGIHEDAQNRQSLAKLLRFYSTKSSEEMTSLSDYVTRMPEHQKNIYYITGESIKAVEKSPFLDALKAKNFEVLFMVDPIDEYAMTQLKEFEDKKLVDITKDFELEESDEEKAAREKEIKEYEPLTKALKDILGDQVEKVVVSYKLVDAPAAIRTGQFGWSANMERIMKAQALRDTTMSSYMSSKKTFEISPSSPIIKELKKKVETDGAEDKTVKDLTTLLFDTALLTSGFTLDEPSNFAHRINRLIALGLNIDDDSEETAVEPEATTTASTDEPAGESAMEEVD

[36] = luciferase reporter signal suppression in cells – H4 neuroglioma cells, luminescence, dose response (AID 1990); type: functional, cell-based
[37] = Luminescence Cell-Based Dose Response HTS to Identify Inhibitors of 5'UTR Stem-Loop Driven Prion Protein mRNA Translation in H4 Neuroglioblastoma Cells. [Related pubchem assays: 1827 (Project Summary), 1813 (Primary HTS)]; type: functional
[38] = alpha-synuclein stem-loop luciferase translation blockers – H4 neuroglioma cells, luminescence, confirmation (AID 1988); type: functional, cell-based

Compound: COc1ccc(OC)c(-c2cc(C(=O)Nc3c(C)nn(Cc4ccccc4)c3C)no2)c1
- EC50 (HEK293 [1]): > 59.6 µM (inactive)
- EC50 (HEK293 [2]): > 59.6 µM (inactive)

Compound: O=C(N/N=C/c1ccc([N+](=O)[O-])o1)c1sc2ccccc2c1Cl
- CC50 [3]: > 20 µM (active)
- CC50 [4]: 20.2 µM (active)
- CC50 [5]: 19.1 µM (active)
- AC50 (A-375 [6]): > 11 µM (active)
- AC50 (A-375 [7]): > 11 µM (active)
- IC50 [8]: > 100 µM (inactive)
- IC50 [9]: 7.89 µM (active)
- IC50 (cells): 2.18 µM (active)
- IC50 [10]: > 100 µM (inactive)
- AC50 [11]: 4.4 µM (active)
- AC50 [12]: 4.61 µM (active)

Compound: COc1ccc(C(=O)CN2C(=O)c3ccccc3S2(=O)=O)cc1
- IC50 (Jurkat): 1.08 µM (active)
- AC50 [13]: 691 nM (active)
- AC50 [14]: 2.16 µM (active)
- AC50 [15]: 675 nM (active)
- IC50 [16]: > 80 µM (inactive)
- AC50 [17]: > 52 µM (inactive)
- AC50 [18]: 2.54 µM (active)
- AC50 (Paired box protein Pax-8): 3.53 µM (active)
- AC50 [19]: 1.07 µM (active)
- AC50 [20]: 10.7 µM (active)
- AC50 [21]: > 52 µM (inactive)

Compound: O=C(c1ccc(F)cc1)C(CN1CCOCC1)c1ccccc1 (centres undefined)
- AC50 [22]: 19.4 µM (active)
- EC50 [23]: 4.06 µM (active)
- IC50 [24]: 3.27 µM (active)
- AC50 [25]: 17.6 µM (active)
- EC50 [26]: 2.42 µM (active)
- AC50 (A-375 [6]): > 35 µM (active)
- AC50 [27]: 6.91 µM (active)
- IC50 [28]: 4.17 µM (active)
- AC50 (A-375 [7]): > 35 µM (active)
- EC50 [29]: 3.36 µM (active)
- EC50 [30]: 10.9 µM (active)
- AC50 [12]: 5.96 µM (active)

Compound: COc1ccc(CCN2C(=O)c3[nH]nc(-c4ccccc4O)c3C2c2ccccc2)cc1OC (centres undefined)
- AC50 [14]: 0.929 µM (active)
- AC50 [31]: 52.7 µM (active)
- EC50 (HEK293 [1]): > 59.7 µM (inactive)
- EC50 (HEK293 [2]): > 59.7 µM (inactive)
- AC50 [18]: 0.621 µM (active)
- AC50 [19]: 0.376 µM (active)
- AC50 [20]: 0.625 µM (active)

Compound: CCOc1ccc(-c2ccc(NS(=O)(=O)c3ccc([N+](=O)[O-])cc3)cc2)nn1
- EC50 [32]: 50.7 µM (active)
- EC50 [33]: > 180 µM (inactive)
- EC50 [34]: 2.36 µM (active)
- EC50 [35]: > 150 µM (inactive)

Compound: CCCCn1c(SCc2ccc(Cl)cc2)nc2c1c(=O)[nH]c(=O)n2C
- EC50 (HEK293 [1]): > 59.6 µM (inactive)
- EC50 (HEK293 [2]): > 59.6 µM (inactive)
- EC50 [36]: 15.8 µM (active)
- EC50 [37]: 16.2 µM (active)
- EC50 [38]: 17 µM (active)

Compound: Cc1ccc(-c2nc(C#N)c(NCc3ccco3)o2)cc1
- AC50 (A-375 [6]): > 35 µM (active)
- AC50 (A-375 [7]): > 35 µM (active)

Compound: Cc1cc(Br)ccc1OCC(=O)NNC(=O)C(=O)Nc1ccccc1
- EC50 [32]: > 150 µM (inactive)
- EC50 [33]: > 180 µM (inactive)
- EC50 [34]: 0.526 µM (active)
- IC50 (cells): 12.2 µM (active)
- EC50 [35]: > 150 µM (inactive)

Compound: CC1CCN(Cc2nc(-c3ccc(Cl)cc3)no2)CC1
- AC50 (A-375 [6]): > 35 µM (active)
- AC50 (A-375 [7]): > 35 µM (active)
- AC50 [12]: 7.62 µM (active)

Compound: CCOC(=O)[C@@H](C)N(Cc1ccc(OC)cc1)S(=O)(=O)N(Cc1ccccc1)[C@H](C(=O)OC)C(C)C
- EC50 (HEK293 [1]): > 59.7 µM (inactive)
- EC50 (HEK293 [2]): > 59.7 µM (inactive)
